One compound from patent EP0328389A2, “Compostions for treating intracranial tumors” (MATRIX PHARMACEUTICAL INC., priority 1988, dated 1989) can be followed below.

A short description of series [1]: Acute drug toxicity: deaths by day 7 after intracranial drug injection. Particulars: mouse, in vivo, 0.2 mg/kg; read-out: % of Mice That Died. The series is classed as in vivo, mice. How it is done: (§1) The use of vinblastine (VBL) and vincristine (VC) alone and in combination with a protein carrier on the growth of experimental murine tumors grown intracranially was investigated. Halothane-anesthesized C3H mice 12-16 weeks in age were injected intracranially (i.c.) into the right frontal lobe with 10 µl total volume of Hank's balanced salt solution containing 5 X 10⁴ KHT fibrosarcoma cells through a burr hole made in the exposed cranium with a compressed air-driven drill. Following injection, the cranium was sealed with bone wax, and the overlying skin was sutured.
(§2) The test solution with and without matrix and the saline control were delivered intracranially (i.c.) in an injection volume of 10 µl through the same burr hole used for tumor cell inoculation. All mice were observed daily.
(§3) The acute drug toxicity level was determined by the percentage of animal survival on day 7 following drug injection. A comparison of the acute toxicity (deaths) of mice treated i.c. with matrix-associated VBL to aqueous VBL (10 µl) injection volume to the right frontal lobe is shown in Table 1 below. […]

For the next series, the system named is C3H mice. Described as above. It counts as in vivo. To be noted: 0.2 mg/kg vinblastine i.c., 10 µl, right frontal lobe, 5 days post tumor implantation; deaths by day 7 following drug injection; epinephrine 0.1 mg/kg; matrix 1:1 bovine collagen 36 mg/ml. How it is done: as §1, §2, §3

As to `CC[C@]1(O)C[C@@H]2CN(CCc3c([nH]c4ccccc34)[C@@](C(=O)OC)(c3cc4c(cc3OC)N(C)[C@H]3[C@@](O)(C(=O)OC)[C@H](OC(C)=O)[C@]5(CC)C=CCN6CC[C@]43[C@@H]65)C2)C1` [Vinblastine, vinblastine], the mortality at 168 h in series [1] stood at 26%. For the same compound, the “Number of Mice That Died” value in the series on C3H mice is given as 7.
